Reference: PMC8560754, “Bridging the gap between in silico and in vivo by modeling opioid disposition in a kidney proximal tubule microphysiological system” (Scientific Reports, 2021)
Where two headings read alike, the source gives them in different places. Marks after values point to notes of the source that are not given here.

How the values were obtained:
[1] = Transport of morphine and M6G in the vascularized proximal tubule MPS (VPT-MPS); type: in vitro ADME, human; settings: human, with probenecid (1 mM) and tetraethylammonium (1 mM), read-out: Permeability
Procedure: (§1) The inner chamber of dual-channel MPS devices (Duplo, Fig. 1) (https://www.nortisbio.com/) was dried, filled with 6 mg/mL of rat tail collagen I, and left overnight to allow the collagen I matrix to solidify. The mandrels of the MPS platforms were then removed, leaving two hollow channels through the collagen I matrix. The PTEC channel was coated with a 5 µg/mL mouse collagen IV to facilitate human PTECs adhesion. Cultures of primary kidney epithelial cells were subjected to trypsin digestion to obtain single cell suspensions. The cells were counted and resuspended with PTECs culture media at a concentration of 20 × 10^6 cells/mL and 2–2.5 µL were injected into the collagen IV-coated channel. Cells were allowed to attach for 3 h before starting perfusion at a rate of 1.0 µL/min. A 1.0 µL/min perfusion of DMEM/F12 media containing ITS-A, 50 nM hydrocortisone, penicillin–streptomycin and amphotericin B was then initiated. Following 6 days under these culture conditions, the epithelial tubule was established and perfusion to the channel was stopped for a brief period. The parallel vacant channel was equilibrated with EGM-2 media containing 2% FBS for 2 h at 1.0 µL/min. Then, HUVECs (passages 5–10) were seeded into the equilibrated channel and allowed to attach for 30 min to establish an endothelial vessel. Flow to both channels was resumed at 1.0 µL/min with both channels receiving their respective culture medium. The day after seeding HUVEC, VPT-MPS were used for transport experiments. Prior to the beginning of experiments, a visual inspection under light microscope was performed to confirm complete (100%) coverage of both HUVEC vessel and PTEC tubule, respectively.
(§2) The flow rate of flow through both channels was set at 1 µL/min. Effluents from the vessel and the tubule were collected every 2 h, and drug concentrations in the samples were determined LC/MS/MS. Transport experiments were conducted across 3 different donors. Effluent measurements were extended out to 24 h in order to reach steady-state levels in solute output.

[2] = test system: human primary proximal tubular epithelial cells (PTEC) tubule in VPT-MPS; assay: as above; type: in vitro ADME; settings: for CLint,sec: VPT-MPS derived intrinsic secretion clearance; for CLsecretion, each proximal subsegment S1, S2, and S3: clearance value of each proximal subsegment; for CLsecretion, each proximal subsegment S1, S2, and S3 / CLsecretion: scaled up from VPT-MPS; for CLsecretion: unbound intrinsic kidney active secretion clearance at proximal tubule, total; for CLapp, passive diffusion / CLapp, active secretion: one representative donor; for CLapp, passive diffusion / Concentration in endothelial cell / Efflux rate into lumen / CLapp, active secretion: mean ± SD; for Concentration in endothelial cell / Efflux rate into lumen: representative donor of Fig 2
Procedure: as §1, §2

PTECs monolayers = assay: Bidirectional transport across PTECs monolayers in conventional 2D Transwell; type: in vitro ADME, human; settings: for CLint, secretion: considered as zero since no active secretion was observed in 2D Transwell; for Papp A→B / Papp B→A: Inhibitor (-), 1.5 hour incubation; for Papp A→B: read-out: Papp Apical to Basal; for Papp B→A: read-out: Papp Basal to Apical
Procedure: (§3) PTECs were seeded on polyester membrane HTS 24-well Transwell^TM inserts at 0.5-1 ×10^5 cells/well and cultured for 7-10 days until confluency. Transepithelial electrical resistance
(§4) (TEER) across PTECs monolayers was monitored by an EVOM meter from World Precision Instruments (Berlin, Germany). TEER values were normalized to culture surface areas of Transwell^TM inserts. Wells with TEER reading from 25-150 ohm∙cm^2 were used for experiments.
(§5) Samples were collected from basal (for apical to basal transport) or apical (for basal to apical transport) insert and analyzed by LC/MS/MS. Concentrations were used to determine apparent permeability (Papp) by using the following equation: […]

[3] = as above; type: in vitro ADME, human; settings: human; for Papp at 1.5 h, 1 µM: PTECs permeability study data used for CLr prediction; for Papp A→B at 1.5 h, 1 µM / Papp B→A at 1.5 h, 1 µM: Inhibitor (-), 1.5 hour incubation; for Papp A→B at 1.5 h, 1 µM: read-out: Papp Apical to Basal; for Papp B→A at 1.5 h, 1 µM: read-out: Papp Basal to Apical
Procedure: as §3, §4, §5

[4] = Bidirectional transport across MDCK monolayers in conventional 2D Transwell; type: in vitro ADME; settings: dog, Inhibitor (-), 1.5 hour incubation
Source text: as §5

[5] = human, cited from earlier work
[6] = blood-to-plasma ratio; cited from earlier work
[7] = ref www.drugbank.ca; cited from earlier work
[8] = fraction of morphine metabolism to M6G; cited from earlier work
[9] = Morphine-M6G parent-metabolite full body PBPK model; set-up: species or system human; settings: hepatic clearance; systemic clearance minus renal clearance

CN1CC[C@]23c4c5ccc(O)c4O[C@H]2[C@@H](O[C@@H]2O[C@H](C(=O)O)[C@@H](O)[C@H](O)[C@H]2O)C=C[C@H]3[C@H]1C5 [M6G, morphine-6-glucuronide]
Papp at 24 h, 1 µM ([1]; Donor1, VPT-MPS): 25.9 ± 28.5 ×10⁻⁶ cm/s
Papp at 24 h, 1 µM ([1]; Donor2, VPT-MPS): 9.74 ± 11.1 ×10⁻⁶ cm/s
Papp at 24 h, 1 µM ([1]; Donor3, VPT-MPS): 41.8 ×10⁻⁶ cm/s
Papp at 24 h, 1 µM ([1]; PBPK model parameter, experimentally determined using VPT-MPS): 23.8 ×10⁻⁶ cm/s
decrease in intrinsic clearance by transporter inhibitors ([2]; 1 mM probenecid and 1 mM tetraethylammonium, average of three donors): 63.6%
CLint,sec ([2]; Donor1): 15.6 ± 10.5 µL/h/MPS
CLint,sec ([2]; Donor2): 1.29 ± 1.09 µL/h/MPS
CLint,sec ([2]; Donor3): 22.9 µL/h/MPS
CLsecretion, each proximal subsegment S1, S2, and S3 [2]: 14.5 L/h
CLint, active secretion, range between PTECs donors ([2]; three donors): 1.29–22.9 µL/h/VPT-MPS
CLsecretion [2]: 43.5 L/h
CLapp, passive diffusion ([2]; with inhibitor): 1.92±2.02 μL/hr/MPS
Concentration in endothelial cell ([2]; with inhibitor): 639 ± 34 pmol/mL
Efflux rate into lumen ([2]; with inhibitor): 0.0191 ± 0.0192 pmol/min/MPS
CLapp, active secretion ([2]; without inhibitor): 7.90±3.86 μL/hr/MPS
Concentration in endothelial cell ([2]; without inhibitor): 640 ± 58 pmol/mL
Efflux rate into lumen ([2]; without inhibitor): 0.110 ± 0.043 pmol/min/MPS
CLint, secretion (PTECs monolayers; Donor2): 0 µL/h
CLint, secretion (PTECs monolayers; Donor3): 0 µL/h
CLint, secretion (PTECs monolayers; Donor5): 0 µL/h
CLint, secretion (PTECs monolayers; Donor6): 0 µL/h
Papp at 1.5 h, 1 µM ([3]; Donor3): 40.1 ×10⁻⁶ cm/s
Papp at 1.5 h, 1 µM ([3]; Donor5): 28.6 ×10⁻⁶ cm/s
Papp at 1.5 h, 1 µM ([3]; Donor6): 40.1 ×10⁻⁶ cm/s
Papp A→B at 1.5 h, 1 µM ([3]; Donor2): 58 ×10⁻⁶ cm/s
Papp B→A at 1.5 h, 1 µM ([3]; Donor2): 54.6 ×10⁻⁶ cm/s
Papp A→B at 1.5 h, 1 µM ([3]; Donor3): 40.1 ± 7.5 ×10⁻⁶ cm/s
Papp B→A at 1.5 h, 1 µM ([3]; Donor3): 24.9 ± 14.2 ×10⁻⁶ cm/s
Papp A→B at 1.5 h, 1 µM ([3]; Donor4): 22.5 ×10⁻⁶ cm/s
Papp B→A at 1.5 h, 1 µM ([3]; Donor4): 12.2 ×10⁻⁶ cm/s
Papp A→B at 1.5 h, 1 µM ([3]; Donor5): 28.6 ± 1.6 ×10⁻⁶ cm/s
Papp B→A at 1.5 h, 1 µM ([3]; Donor5): 28.6 ± 2.1 ×10⁻⁶ cm/s
Papp A→B at 1.5 h, 1 µM ([3]; Donor6): 55.6 ×10⁻⁶ cm/s
Papp B→A at 1.5 h, 1 µM ([3]; Donor6): 42.2 ×10⁻⁶ cm/s
Papp A→B at 1.5 h, 1 µM ([4]; read-out: Papp Apical to Basal): 3.86 ×10⁻⁶ cm/s
Papp B→A at 1.5 h, 1 µM ([4]; read-out: Papp Basal to Apical): 1.53 ± 0.17 ×10⁻⁶ cm/s
CLr,observed [5]: 9.20–14.3[20],[21] L/h
CLr,observed ([5]; ref 5,6 (supplement)): 9.20-14.3 ^5,6 L/hr
B/P [6]: 0.55^e
pKa (base) [7]: 9.12^b

CN1CC[C@]23c4c5ccc(O)c4O[C@H]2[C@@H](O)C=C[C@H]3[C@H]1C5 [Morphine, reference compound]
CLsecretion, each proximal subsegment S1, S2, and S3 [2]: 13.1 L/h
CLsecretion [2]: 39.3 L/h
CLapp, passive diffusion ([2]; with inhibitor): 2.09±1.58 μL/hr/MPS
CLapp, active secretion ([2]; without inhibitor): 6.98±3.94 μL/hr/MPS
B/P [6]: 1.08^e
fm,M6G [8]: 0.1^k
CLh [9]: 75.3^i L/h

Nc1ccc(C(=O)NCC(=O)O)cc1 [[^3H] PAH, para-aminohippuric acid, reference compound]
active transport in 2D Transwell (PTECs monolayers; 2D culture, probe substrate of OAT1 and OAT3): negligible active transport
Papp A→B (PTECs monolayers; Donor2): 72.4 ×10⁻⁶ cm/s
Papp B→A (PTECs monolayers; Donor2): 69.6 ×10⁻⁶ cm/s
Papp A→B (PTECs monolayers; Donor3): 31.7 ×10⁻⁶ cm/s
Papp B→A (PTECs monolayers; Donor3): 23 ×10⁻⁶ cm/s
Papp A→B (PTECs monolayers; Donor6): 71.7 ×10⁻⁶ cm/s
Papp B→A (PTECs monolayers; Donor6): 67.3 ×10⁻⁶ cm/s
